Experiment [1] deals with NIH 3T3 cells. Description: in vitro transfer of nucleic acid into NIH 3T3 cells with DOGS (luciferase activity). To be noted: 0.25 μg compound. It counts as cell-based. As to the method: (§1) 1. A mixture of 10 μl composed of the following is prepared:
0.5 μg of pCMV-luc plasma DNA, 0.25 μg of a compound according to the invention, in a buffer solution as identified,
40 mM dioctadecylamidoglycylspermine (DOGS) in charge ratios X as indicated in each of the tests. 2. 5·10^4 cells from the NIH3T3 lines are incubated with the above mixture at 37° C., under an atmosphere of 5% CO2 for 4 hours. The cells are then washed and recultured for 48 hours in a medium containing 10% serum (DMEM 10% SVF).
The cell carpet is then lysed in 50 μl of lysis buffer (Promega), recovered and then centrifuged at 20,000 g for 5 minutes.
The luciferase activity is measured on 4 μl of supernatant by adding 20 μl of substrate (Promega). The reading is taken on a LKB luminometer, cumulating the RLUs (relative light units) over 20 seconds.
3. Compaction in 150 mM NaCl, 10 mM HEPES* (* N-(2-hydroxyethyl)piperazine-N'-(2-ethanesulphonic acid) at pH 7.1
4. Compaction in 5% D-glucose, 150 mM NaCl, with 10 mM HEPES (pH of the compaction solution: 7.2)

Experiment [2] relates to NIH3T3 cells. Description: Variation of compound/DNA ratio in the presence of DOGS, luciferase activity. The class given is cell-based. To be noted: PEP/DNA w/v 0 (no peptide); DOGS charge ratio 1.8x; 0.75 μg DNA. As to the method:
as §1
0.75 μg of pCMV-luc plasma DNA and a compound according to the invention in the ratio indicated, in 5% D-glucose, 150 mM NaCl buffer solution, with 10 mM HEPES (pH of the compaction solution: 7.2),
40 mM dioctadecylamidoglycylspermine (DOGS) in a charge ratio of 1.8×.
2. 4·10^5 cells from NIH3T3 lines are incubated with the above mixture at 37° C., under an atmosphere of 5% CO2 for 4 hours. The cells are then washed and recultured for 48 hours in a medium containing 10% serum (DMEM 10% SVF). The cell carpet is then lysed, 45 hours after the transfection, in 100 μl of lysis buffer (Promega), recovered and then centrifuged at 20,000 g for 5 minutes. The luciferase activity is measured on 5 μl of the supernatant, adding 25 μl of substrate (Promega). The reading is taken on an LKB luminometer, cumulating the RLUs (relative light units) over 20 seconds.

Consider `CCCCCCCCCCCCCCCCCCN(CCCCCCCCCCCCCCCCCC)C(=O)CNC(=O)C(CCCNCCCN)NCCCN` (stereo not shown) [DOGS, dioctadecylamidoglycylspermine], for which the luciferase activity in experiment [1] (Table 1, DOGS/DNA charge ratio 0.8x, compaction in 150 mM NaCl, 10 mM HEPES pH 7.1, 0.5 μg pCMV-luc) came to 32 R.L.U; in experiment [1] (Table 1, DOGS/DNA charge ratio 1.8x, 150 mM NaCl, 10 mM HEPES pH 7.1, 0.5 μg pCMV-luc), 220 R.L.U; in experiment [1] (Table 1, DOGS/DNA charge ratio 3x, 150 mM NaCl, 10 mM HEPES pH 7.1, 0.5 μg pCMV-luc), 5400 R.L.U; in experiment [1] (Table 2, DOGS/DNA charge ratio 0.8x, 5% D-glucose, 150 mM NaCl, 10 mM HEPES pH 7.2, 0.5 μg DNA), 880 R.L.U; in experiment [1] (Table 2, DOGS/DNA charge ratio 1.8x, 5% D-glucose, 150 mM NaCl, 10 mM HEPES pH 7.2, 0.5 μg DNA) it was 6600 R.L.U; in experiment [1] (Table 2, DOGS/DNA charge ratio 3x, 5% D-glucose, 150 mM NaCl, 10 mM HEPES pH 7.2, 0.5 μg DNA) it was 22000 R.L.U. For the same compound, the luciferase activity in experiment [2] turned out to be 2150 RLU.
